Patent publication US9770481B2, “Inhibitors of NOX1” (UNIVERSITY OF PITTSBURGH—OF THE COMMONWEALTH SYSTEM OF …, priority 2011, dated 2017)
“Also recorded” adds a separate entry of the source.

How the values were obtained:
Nox1-YFP = test: Image cross correlation spectroscopy (ICCS) of R-NoxA1ds and Nox1-YFP; format: binding; conditions: unlabelled competitor
Protocol: An ELISA of Nox1:NoxA1ds interaction was performed as follows. Neutravidin coated plates were incubated with biotin-tagged NoxA1ds (Biotin-NoxA1ds) or biotin-tagged SCRMB (Biotin-SCRMB) before addition of cell membranes prepared from cells transfected with Nox1 (Nox1 membrane) or transfected with an empty vector (COS22 membrane). Bound Nox1 was detected through a FITC conjugated secondary antibody (αRabbit Ab Sigma F9887) bound to the Nox1 primary antibody (rabbit αNox1 Ab (SC-25545, Santa Cruz Biotechnology)). FITC fluorescence was expressed as binding as % COS22 membranes on each experimental day. […] To further confirm the association, image cross correlation spectroscopy (ICCS) was used to determine patterns in signal fluctuation between rhodamine-labeled NoxA1ds (R-NoxA1ds) and Nox1-YFP though a sequence of 100 images 0.05 s apart. Correlation and cross-correlation was calculated using an ImageJ plugin.

[1] = tested on: rat aortic smooth muscle cells; test: O2- production by rat aortic smooth muscle cells under static conditions or cyclic stretch; format: cell-based
Protocol: FIG. 8. NoxA1ds attenuates stretch-induced O2^− production: Effect of NoxA1ds on O2^− production by rat aortic smooth muscle cells subjected to static conditions or cyclic stretch (10%, 1 Hz, 24 hrs). NoxA1ds was added 4 hrs before measuring O2^− production.
Cyclic stretching of vascular cells occurs as a result of the pulsatile nature of blood flow but is increased in hypertensive states, and has been associated with generation of ROS and possibly cell proliferation. […] At the end of 24 hrs, cells were lysed and membrane fraction O2^− production was measured using cytochrome c.

For “H-EPVDALGKAKV-NH2 [NoxA1ds, [NH3^+]-EPVDALGKAKV-[CONH2]]”, the “Effect of competition with R-NoxA1ds on fractional binding” value (Nox1-YFP) was “significantly reduced the fractional binding”, the “Cyclic stretch-induced O2- production” value ([1]; cyclic stretch 10%, 1 Hz, 24 hrs, peptide added at t=20 hrs (4 hrs before measuring)) was “completely abrogated; also recorded: inhibited” and the “O2- production under static conditions” value ([1]; static, 10 μM) was “negligible effect”.
